The test system of data set [1] is HBeAg (surrogate marker for cccDNA) in HepDES19 cells. Nature of the data set: Engineered HepDES19 primary screen assay (HBeAg ELISA). It counts as cell-based, HBV. The note with it: Hepatitis B virus, HepDES19, 120 h, read-out: IC50 (HBeAg level, HepDES19 primary screen assay), HepDES19 cells, 5 days compound incubation, HBeAg ELISA. The method, boiled down: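 HepDES19 cells were induced by Tet withdrawal for 8 days, then treated with half-log compound dilutions (1% DMSO final) for 5 days at 37 °C. HBeAg was measured by ELISA as the cccDNA surrogate, viability by CCK-8, and IC50 from a 4-parameter logistic fit.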
Background: ELISA stands for enzyme-linked immunosorbent assay.

Data set [2] can be described thus: Human microsome stability assay. It counts as in vitro ADME. The conditions noted are these: human liver microsomes, 1 μM test compound, 0.5 mg/mL microsomal protein, 37° C., pH 7.4, 0-30 minutes. Here is the method:
The human microsomal stability assay is used for early assessment of metabolic stability of a test compound in human liver microsomes.
Human liver microsomes (Cat. NO.: 452117, Corning, USA; Cat. NO.: H2610, Xenotech, USA) were preincubated with test compound for 10 minutes at 37° C. in 100 mM potassium phosphate buffer, pH 7.4. The reactions were initiated by adding NADPH regenerating system. The final incubation mixtures contained 1 μM test compound, 0.5 mg/mL liver microsomal protein, 1 mM MgCl2, 1 mM NADP, 1 unit/mL isocitric dehydrogenase and 6 mM isocitric acid in 100 mM potassium phosphate buffer, pH 7.4. After incubation times of 0, 3, 6, 9, 15 and 30 minutes at 37° C., 300 μL of cold ACN (including internal standard) was added to 100 μL incubation mixture to terminate the reaction. Following precipitation and centrifugation, the amount of compound remaining in the samples was determined by LC-MS/MS. Controls of no NADPH regenerating system at zero and 30 minutes were also prepared and analyzed.
Background: Microsomes from liver hold many membrane-bound enzymes, among them those of drug oxidation.

As usually defined, the IC50 is the concentration needed to halve the response being measured. On to `O=C(COc1cc(C(F)(F)F)ccc1-c1cc(=O)c2cccc(Cl)c2o1)NCCO` [Example A086, 2-[2-(8-chloro-4-oxo-chromen-2-yl)-5-(trifluoromethyl)phenoxy]-N-(2-hydroxyethyl)acetamide], for which, in data set [1], the IC50 was 1 µM. In addition, in data set [2], the “Clearance of Human microsome” value is given as 9.68 mL/min/kg.

For the molecule `Cc1cc(-c2cc(=O)c3cccc(Cl)c3o2)c(OCC(=O)N2CC[C@H](O)C2)cc1Br` [Example A088, 2-[4-bromo-2-[2-[(3S)-3-hydroxypyrrolidin-1-yl]-2-oxo-ethoxy]-5-methyl-phenyl]-8-chloro-chromen-4-one], in data set [1], the IC50 was 1.11 µM. Moreover, in data set [2], the “Clearance of Human microsome” value came out at 7.09 mL/min/kg.

On to `Cc1cc(-c2cc(=O)c3cccc(Cl)c3o2)c(OCC(=O)N2CC[C@@H](O)C2)cc1Br` [Example A089, 2-[4-bromo-2-[2-[(3R)-3-hydroxypyrrolidin-1-yl]-2-oxo-ethoxy]-5-methyl-phenyl]-8-chloro-chromen-4-one], for which the IC50 in data set [1] worked out at 11.9 µM. Besides, the “Clearance of Human microsome” value in data set [2] turned out to be 6.69 mL/min/kg.

On to `COc1cc(OCC(=O)NS(=O)(=O)C2CC2)c(-c2cc(=O)c3cccc(Cl)c3o2)cc1OC` [Example A091, 2-[2-(8-chloro-4-oxo-chromen-2-yl)-4,5-dimethoxy-phenoxy]-N-cyclopropylsulfonyl-acetamide], for which the IC50 in data set [1] was found to be 0.888 µM. Moreover, the “Clearance of Human microsome” value in data set [2] worked out at 6.15 mL/min/kg.

On to `Cc1ccc(-c2cc(=O)c3cccc(Cl)c3o2)c(OCC(=O)N2CCC[C@H]2C(=O)NS(C)(=O)=O)c1` [Example A093, (2S)-1-[2-[2-(8-chloro-4-oxo-chromen-2-yl)-5-methyl-phenoxy]acetyl]-N-methylsulfonyl-pyrrolidine-2-carboxamide], for which the IC50 in data set [1] stood at 1.32 µM. Further, the “Clearance of Human microsome” value in data set [2] is listed as 6.15 mL/min/kg.

Turning to `Cc1ccc(-c2cc(=O)c3cccc(Cl)c3o2)c(OCC(=O)N2CCC[C@@H]2C(=O)NS(C)(=O)=O)c1` [Example A094, (2R)-1-[2-[2-(8-chloro-4-oxo-chromen-2-yl)-5-methyl-phenoxy]acetyl]-N-methylsulfonyl-pyrrolidine-2-carboxamide], in data set [1], the IC50 amounted to 0.858 µM. In addition, the “Clearance of Human microsome” value in data set [2] is reported as 6.15 mL/min/kg.

With `N[C@@H](COc1cc(C(F)(F)F)ccc1-c1cc(=O)c2cccc(Cl)c2o1)C(=O)O` [Example A095, (2S)-2-amino-3-[2-(8-chloro-4-oxo-chromen-2-yl)-5-(trifluoromethyl)phenoxy]propanoic acid], the IC50 in data set [1] was 3.29 µM. The “Clearance of Human microsome” value in data set [2] is given as 9.59 mL/min/kg.

Turning to `Cc1cc(Br)c(OC2CC(C(=O)O)C2)c(-c2cc(=O)c3cccc(Cl)c3o2)c1` (stereo not drawn) [Example B009, 3-[2-bromo-6-(8-chloro-4-oxo-chromen-2-yl)-4-methyl-phenoxy]cyclobutanecarboxylic acid], the IC50 in data set [1] is 5.98 µM. In addition, the “Clearance of Human microsome” value in data set [2] came out at 6.19 mL/min/kg.

For `Cc1ccc(O[C@H]2C[C@@H](C(=O)O)C2)c(-c2cc(=O)c3cccc(Cl)c3o2)c1` [Example B016, Cis-3-[2-(8-chloro-4-oxo-chromen-2-yl)-4-methyl-phenoxy]cyclobutanecarboxylic acid], in data set [1], the IC50 was 3.1 µM. Further, in data set [2], the “Clearance of Human microsome” value is reported as 6.15 mL/min/kg.

For `CCc1ccc(-c2cc(=O)c3cccc(Cl)c3o2)c(O[C@H]2C[C@H](C(=O)O)C2)c1` [Example B019-B, Trans-3-[2-(8-chloro-4-oxo-chromen-2-yl)-5-ethyl-phenoxy]cyclobutanecarboxylic acid], in data set [1], the IC50 was found to be 3.63 µM. In addition, in data set [2], the “Clearance of Human microsome” value is recorded as 8.92 mL/min/kg.

With `CC(C)c1ccc(-c2cc(=O)c3cccc(Cl)c3o2)c(O[C@H]2C[C@H](C(=O)O)C2)c1` [Example B020-B, Trans-3-[2-(8-chloro-4-oxo-chromen-2-yl)-5-isopropyl-phenoxy]cyclobutanecarboxylic acid], in data set [1], the IC50 amounted to 9.44 µM. Moreover, the “Clearance of Human microsome” value in data set [2] worked out at 8.46 mL/min/kg.

On to `COc1ccc(O[C@H]2C[C@H](C(=O)O)C2)c(-c2cc(=O)c3cccc(Cl)c3o2)c1` [Example B021, Trans-3-[2-(8-chloro-4-oxo-chromen-2-yl)-4-methoxy-phenoxy]cyclobutanecarboxylic acid], for which the IC50 in data set [1] worked out at 3.06 µM. Moreover, the “Clearance of Human microsome” value in data set [2] came to 6.15 mL/min/kg.

Regarding `O=c1cc(-c2ccccc2O[C@H]2C[C@H](C(=O)O)C2)oc2c(Br)cccc12` [Example B022-B, Trans-3-[2-(8-bromo-4-oxo-chromen-2-yl)phenoxy]cyclobutanecarboxylic acid], the IC50 in data set [1] amounted to 0.141 µM. In addition, the “Clearance of Human microsome” value in data set [2] is listed as 6.15 mL/min/kg.

In the case of `O=c1cc(-c2cc3c(cc2O[C@H]2C[C@H](C(=O)O)C2)CCO3)oc2c(Cl)cccc12` [Example B023, Trans-3-[[6-(8-chloro-4-oxo-chromen-2-yl)-2,3-dihydrobenzofuran-5-yl]oxy]cyclobutanecarboxylic acid], the half-inhibitory concentration (IC50) in data set [1] stood at 3.39 µM. Further, the “Clearance of Human microsome” value in data set [2] is 6.15 mL/min/kg.

Take `COc1ccc(OC[C@H]2C[C@H](C(=O)O)C2)c(-c2cc(=O)c3cccc(Cl)c3o2)c1` [Example B027-B]: in data set [1], the IC50 came out at 11 µM. Moreover, the “Clearance of Human microsome” value in data set [2] amounted to 6.15 mL/min/kg.

On to `O=c1cc(-c2ncc(Br)cc2O[C@H]2C[C@H](C(=O)O)C2)oc2c(Cl)cccc12` [Example B029, Trans-3-[[5-bromo-2-(8-chloro-4-oxo-chromen-2-yl)-3-pyridyl]oxy]cyclobutanecarboxylic acid], for which the IC50 in data set [1] amounted to 14.1 µM. For the same molecule, the “Clearance of Human microsome” value in data set [2] came to 6.15 mL/min/kg.

With `O=c1cc(-c2ccc(C(F)(F)F)cc2O[C@H]2C[C@@H](C(=O)O)C2)oc2c(Cl)ccc(O)c12` [Example B038-A, Cis-3-[2-(8-chloro-5-hydroxy-4-oxo-chromen-2-yl)-5-(trifluoromethyl)phenoxy]cyclobutanecarboxylic acid], the IC50 in data set [1] amounted to 1.05 µM. The “Clearance of Human microsome” value in data set [2] came out at 6.84 mL/min/kg.

In the case of `O=c1cc(-c2ccc(C(F)(F)F)cc2O[C@H]2C[C@H](C(=O)O)C2)oc2c(Cl)ccc(O)c12` [Example B038-B, Trans-3-[2-(8-chloro-5-hydroxy-4-oxo-chromen-2-yl)-5-(trifluoromethyl)phenoxy]cyclobutanecarboxylic acid], the IC50 in data set [1] was found to be 0.312 µM. The “Clearance of Human microsome” value in data set [2] is given as 9.59 mL/min/kg.

Consider `CCOc1ccc(-c2cc(=O)c3c(O)ccc(Cl)c3o2)c(O[C@H]2C[C@H](C(=O)O)C2)c1` [Example B039-B, Trans-3-[2-(8-chloro-5-hydroxy-4-oxo-chromen-2-yl)-5-ethoxy-phenoxy]cyclobutanecarboxylic acid], for which the IC50 in data set [1] came to 11.5 µM. Also, in data set [2], the “Clearance of Human microsome” value was 6.15 mL/min/kg.

`Cc1cc(-c2cc(=O)c3c(O)ccc(Cl)c3o2)c(O[C@H]2C[C@H](C(=O)O)C2)cc1Br` [Example B040-B, trans-3-[5-bromo-2-(8-chloro-5-hydroxy-4-oxo-chromen-2-yl)-4-methyl-phenoxy]cyclobutanecarboxylic acid]: the IC50 in data set [1] was 2.93 µM. Besides, the “Clearance of Human microsome” value in data set [2] worked out at 6.29 mL/min/kg.

Consider `O=C(O)CCCOc1cc(C(F)(F)F)ccc1-c1cc(=O)c2c(O)ccc(Cl)c2o1` [Example B041, 4-[2-(8-chloro-5-hydroxy-4-oxo-chromen-2-yl)-5-(trifluoromethyl)phenoxy]butanoic acid], for which the IC50 in data set [1] came out at 0.289 µM. Also, in data set [2], the “Clearance of Human microsome” value turned out to be 6.15 mL/min/kg.

The values above are taken from patent US11708344B2, “Flavone derivatives for the treatment and prophylaxis of hepatitis B virus disease” (Hoffmann-La Roche Inc., priority 2018, dated 2023).
